These results are taken from ChEMBL document CHEMBL4819142, “Synthesis of propargylamine mycophenolate analogues and their selective cytotoxic activity towards neuroblastoma SH-SY5Y cell line” (Bioorg Med Chem Lett, 2021).

Some results are limits rather than exact numbers.

One assay has as its system HT-29. The experiment in a line: Cytotoxicity against human HT-29 cells assessed as growth inhibition measured by SRB assay. In kind it is functional, cell-based. For orientation: Sulforhodamine B stains cellular protein and so reports cell mass.
A further assay relates to FaDu. The experiment in a line: Cytotoxicity against human FaDu cells assessed as growth inhibition measured by SRB assay. In kind it is functional, cell-based.
The nature of assay [1]: Cytotoxicity against human […] cells assessed as growth inhibition measured by SRB assay. In kind it is cell-based.
The subject of the next assay is MDA-MB-231. The experiment in a line: Cytotoxicity against human MDA-MB-231 cells assessed as growth inhibition measured by SRB assay. Type of assay: functional, cell-based.
In the next assay the test system is A549. The experiment in a line: Cytotoxicity against human A549 cells assessed as growth inhibition measured by SRB assay. Type of assay: functional, cell-based.
A further assay has as its system SH-SY5Y. The experiment in a line: Cytotoxicity against human SH-SY5Y cells assessed as growth inhibition measured by SRB assay. In kind it is functional, cell-based.
A short description of assay [2]: Cytotoxicity against human KKUM213 cells assessed as growth inhibition measured by SRB assay. Type of assay: functional, cell-based. The settings on record: KKU-M213.

Usually IC50 stands for the point on the concentration scale where inhibition reaches its midpoint. For `COC(=O)CC/C(C)=C/Cc1c(O)c2c(c(C)c1OC)COC2=O`, the IC50 with HT-29 turned out to be 23.7 µM; in the assay with FaDu, 6.15 µM; in assay [1], 5.82 µM; in the assay with MDA-MB-231, 9.62 µM; in the assay on A549, 0.82 µM; in the assay on SH-SY5Y, 0.26 µM. In addition, the IC50 in assay [2] was 7.45 µM.
As to `COC(=O)CC/C(C)=C/Cc1c(OC)c(C)c2c(c1OCC#CCN1CCN(C(c3ccccc3)c3ccccc3)CC1)C(=O)OC2`, the IC50 with HT-29 was above 50 µM; in the assay with FaDu, above 50 µM; in assay [1] it was above 50 µM; in the assay with MDA-MB-231, above 50 µM; in the assay with A549 it was 32.7 µM; with SH-SY5Y, 23.7 µM. In addition, the IC50 in assay [2] is above 50 µM.
As for `COC(=O)CC/C(C)=C/Cc1c(OC)c(C)c2c(c1OCC#CCN1CCN(c3ccccc3OC)CC1)C(=O)OC2`, the IC50 is above 50 µM with HT-29; above 50 µM in the assay with FaDu; above 50 µM in assay [1]; above 50 µM in the assay with MDA-MB-231; above 50 µM in the assay on A549; 43.6 µM in the assay with SH-SY5Y. Moreover, the IC50 in assay [2] was above 50 µM.
Regarding `COC(=O)CC/C(C)=C/Cc1c(OC)c(C)c2c(c1OCC#CCN1CCN(c3ccccc3F)CC1)C(=O)OC2`, the IC50 in the assay with HT-29 was above 50 µM; with FaDu it was above 50 µM; in assay [1], above 50 µM; in the assay on MDA-MB-231, above 50 µM; in the assay on A549, 45.3 µM; with SH-SY5Y it was 35.8 µM. In addition, the IC50 in assay [2] is above 50 µM.
For the molecule `C#CCOc1c(C/C=C(\C)CCC(=O)OC)c(OC)c(C)c2c1C(=O)OC2`, the IC50 was 28.8 µM in the assay on HT-29; 15.2 µM with FaDu; 25.2 µM in assay [1]; 49.2 µM with MDA-MB-231; 31.8 µM in the assay on A549; 3.07 µM in the assay with SH-SY5Y. In addition, the IC50 in assay [2] turned out to be 35.7 µM.
Regarding `COC(=O)CC/C(C)=C/Cc1c(OC)c(C)c2c(c1OCC#CCN1CCN(C(c3ccccc3)c3ccc(Cl)cc3)CC1)C(=O)OC2` (stereo not given), the IC50 with HT-29 was above 50 µM; in the assay with FaDu, above 50 µM; in assay [1], above 50 µM; in the assay on MDA-MB-231, above 50 µM; in the assay with A549, 29.1 µM; in the assay on SH-SY5Y it was 9.9 µM. The IC50 in assay [2] is above 50 µM.
For the molecule `COC(=O)CC/C(C)=C/Cc1c(OC)c(C)c2c(c1OCC#CCN1CCN(C(c3ccc(F)cc3)c3ccc(F)cc3)CC1)C(=O)OC2`, the IC50 was above 50 µM in the assay on HT-29; above 50 µM with FaDu; above 50 µM in assay [1]; above 50 µM in the assay on MDA-MB-231; 34.1 µM with A549; 25.8 µM in the assay with SH-SY5Y. Besides, in assay [2], the 50% inhibitory concentration (IC50) is above 50 µM.
Take `COC(=O)CC/C(C)=C/Cc1c(OC)c(C)c2c(c1OCC#CCN1CCC(C(=O)OC)CC1)C(=O)OC2`: the IC50 is above 50 µM with HT-29; above 50 µM with FaDu; above 50 µM in assay [1]; above 50 µM with MDA-MB-231; 40.5 µM in the assay with A549; 41.2 µM in the assay with SH-SY5Y. Further, the IC50 in assay [2] is above 50 µM.
Consider `COC(=O)CC/C(C)=C/Cc1c(OC)c(C)c2c(c1OCC#CCN1CCN(c3ccc(O)cc3)CC1)C(=O)OC2`, for which the IC50 with HT-29 is above 50 µM; in the assay with FaDu, above 50 µM; in assay [1], above 50 µM; in the assay on MDA-MB-231, above 50 µM; in the assay with A549, above 50 µM; with SH-SY5Y, 46.1 µM. The IC50 in assay [2] was above 50 µM.
On to `COC(=O)CC/C(C)=C/Cc1c(OC)c(C)c2c(c1OCC#CCN1CCC(Cc3ccccc3)CC1)C(=O)OC2`, for which the IC50 in the assay on HT-29 was above 50 µM; in the assay with FaDu, above 50 µM; in assay [1] it was above 50 µM; in the assay with MDA-MB-231 it was above 50 µM; in the assay with A549 it was 40.7 µM; with SH-SY5Y, 24.5 µM. The IC50 in assay [2] was above 50 µM.
As to `COC(=O)CC/C(C)=C/Cc1c(OC)c(C)c2c(c1OCC#CCN1CCN(C(=O)C3COc4ccccc4O3)CC1)C(=O)OC2` (stereo not given), the IC50 (in the assay on HT-29; in the assay on FaDu; in assay [1]; in the assay with MDA-MB-231; with A549; with SH-SY5Y) was above 50 µM in each case. Also, the IC50 in assay [2] is above 50 µM.
With `COC(=O)CC/C(C)=C/Cc1c(OC)c(C)c2c(c1OCC#CCN1CCC(C(=O)O)CC1)C(=O)OC2`, the IC50 in the assay with HT-29 is above 50 µM; in the assay with FaDu, above 50 µM; in assay [1], above 50 µM; in the assay on MDA-MB-231, above 50 µM; in the assay on A549, above 50 µM; with SH-SY5Y it was 47.2 µM. Besides, the IC50 in assay [2] was above 50 µM.
For `COC(=O)CC/C(C)=C/Cc1c(OC)c(C)c2c(c1OCC#CCN1CCN(C(C)=O)CC1)C(=O)OC2`, the concentration for half-maximal inhibition (IC50) (in the assay with HT-29; in the assay on FaDu; in assay [1]; in the assay with MDA-MB-231; in the assay on A549; in the assay with SH-SY5Y) was above 50 µM in each case. In assay [2], the IC50 is above 50 µM.
On to `COC(=O)CC/C(C)=C/Cc1c(OC)c(C)c2c(c1OCC#CCN1CCN(c3ncccn3)CC1)C(=O)OC2`, for which the IC50 (in the assay with HT-29; in the assay on FaDu; in assay [1]; in the assay on MDA-MB-231; in the assay on A549; with SH-SY5Y) was above 50 µM throughout. The IC50 in assay [2] was above 50 µM.
For the molecule `COC(=O)CC/C(C)=C/Cc1c(OC)c(C)c2c(c1OCC#CCN1CCN(c3ccccc3)CC1)C(=O)OC2`, the IC50 in the assay on HT-29 was above 50 µM; in the assay on FaDu it was above 50 µM; in assay [1] it was above 50 µM; in the assay on MDA-MB-231, above 50 µM; with A549 it was 22 µM; with SH-SY5Y it was 9.14 µM. In assay [2], the IC50 is above 50 µM.
Regarding `COC(=O)CC/C(C)=C/Cc1c(OC)c(C)c2c(c1OCC#CCN1CCN(Cc3ccc(Cl)cc3)CC1)C(=O)OC2`, the IC50 with HT-29 is above 50 µM; with FaDu, above 50 µM; in assay [1], above 50 µM; with MDA-MB-231, above 50 µM; with A549, above 50 µM; in the assay on SH-SY5Y, 31.2 µM. Moreover, the IC50 in assay [2] is above 50 µM.
Take `COC(=O)CC/C(C)=C/Cc1c(OC)c(C)c2c(c1OCC#CCN1CCN(CCO)CC1)C(=O)OC2`: the IC50 in the assay on HT-29 was above 50 µM; in the assay on FaDu, above 50 µM; in assay [1], above 50 µM; in the assay with MDA-MB-231, above 50 µM; in the assay with A549 it was above 50 µM; with SH-SY5Y, 35.7 µM. In addition, in assay [2], the IC50 is above 50 µM.
Regarding `COC(=O)CC/C(C)=C/Cc1c(OC)c(C)c2c(c1OCC#CCN1CCN(Cc3ccc4c(c3)OCO4)CC1)C(=O)OC2`, the IC50 was above 50 µM in the assay on HT-29; above 50 µM in the assay with FaDu; above 50 µM in assay [1]; above 50 µM in the assay on MDA-MB-231; 45.5 µM in the assay with A549; 34.8 µM with SH-SY5Y. Moreover, in assay [2], the IC50 is above 50 µM.
Take `COC(=O)CC/C(C)=C/Cc1c(OC)c(C)c2c(c1OCC#CCN1CCN(c3ccc(C)cc3)CC1)C(=O)OC2`: the IC50 was above 50 µM in the assay with HT-29; above 50 µM with FaDu; above 50 µM in assay [1]; above 50 µM with MDA-MB-231; above 50 µM in the assay on A549; 37.7 µM in the assay with SH-SY5Y. Also, in assay [2], the half-maximal inhibitory concentration (IC50) was above 50 µM.
For `COC(=O)CC/C(C)=C/Cc1c(OC)c(C)c2c(c1OCC#CCN1CCN(c3ccc(C#N)cc3)CC1)C(=O)OC2`, the IC50 in the assay with HT-29 is above 50 µM; with FaDu, above 50 µM; in assay [1] it was above 50 µM; in the assay on MDA-MB-231, above 50 µM; in the assay on A549, above 50 µM; with SH-SY5Y it was 37.8 µM. For the same molecule, in assay [2], the half-inhibitory concentration (IC50) was above 50 µM.
